Results on three compounds are retold here after patent publication US20140045847A1, “CRYSTALLINE FORM OF A SALT OF A MORPHOLINO SULFONYL INDOLE DERIVATIVE AND A PROCESS FOR ITS PREPARATION” (PIRAMAL ENTERPRISES LIMITED, priority 2011, published 2014).

In one series the test system is human tumor cell lines. The note with it: mesenchymal, epithelial and hematopoietic tumor cell lines; Carboni et al. 2009; cited from earlier work.
The target in a further series is T1, pIGF-1R (Homo sapiens, UniProt P08069).
T1 construct: endogenous in cells
T1 sequence (P08069 31-1367): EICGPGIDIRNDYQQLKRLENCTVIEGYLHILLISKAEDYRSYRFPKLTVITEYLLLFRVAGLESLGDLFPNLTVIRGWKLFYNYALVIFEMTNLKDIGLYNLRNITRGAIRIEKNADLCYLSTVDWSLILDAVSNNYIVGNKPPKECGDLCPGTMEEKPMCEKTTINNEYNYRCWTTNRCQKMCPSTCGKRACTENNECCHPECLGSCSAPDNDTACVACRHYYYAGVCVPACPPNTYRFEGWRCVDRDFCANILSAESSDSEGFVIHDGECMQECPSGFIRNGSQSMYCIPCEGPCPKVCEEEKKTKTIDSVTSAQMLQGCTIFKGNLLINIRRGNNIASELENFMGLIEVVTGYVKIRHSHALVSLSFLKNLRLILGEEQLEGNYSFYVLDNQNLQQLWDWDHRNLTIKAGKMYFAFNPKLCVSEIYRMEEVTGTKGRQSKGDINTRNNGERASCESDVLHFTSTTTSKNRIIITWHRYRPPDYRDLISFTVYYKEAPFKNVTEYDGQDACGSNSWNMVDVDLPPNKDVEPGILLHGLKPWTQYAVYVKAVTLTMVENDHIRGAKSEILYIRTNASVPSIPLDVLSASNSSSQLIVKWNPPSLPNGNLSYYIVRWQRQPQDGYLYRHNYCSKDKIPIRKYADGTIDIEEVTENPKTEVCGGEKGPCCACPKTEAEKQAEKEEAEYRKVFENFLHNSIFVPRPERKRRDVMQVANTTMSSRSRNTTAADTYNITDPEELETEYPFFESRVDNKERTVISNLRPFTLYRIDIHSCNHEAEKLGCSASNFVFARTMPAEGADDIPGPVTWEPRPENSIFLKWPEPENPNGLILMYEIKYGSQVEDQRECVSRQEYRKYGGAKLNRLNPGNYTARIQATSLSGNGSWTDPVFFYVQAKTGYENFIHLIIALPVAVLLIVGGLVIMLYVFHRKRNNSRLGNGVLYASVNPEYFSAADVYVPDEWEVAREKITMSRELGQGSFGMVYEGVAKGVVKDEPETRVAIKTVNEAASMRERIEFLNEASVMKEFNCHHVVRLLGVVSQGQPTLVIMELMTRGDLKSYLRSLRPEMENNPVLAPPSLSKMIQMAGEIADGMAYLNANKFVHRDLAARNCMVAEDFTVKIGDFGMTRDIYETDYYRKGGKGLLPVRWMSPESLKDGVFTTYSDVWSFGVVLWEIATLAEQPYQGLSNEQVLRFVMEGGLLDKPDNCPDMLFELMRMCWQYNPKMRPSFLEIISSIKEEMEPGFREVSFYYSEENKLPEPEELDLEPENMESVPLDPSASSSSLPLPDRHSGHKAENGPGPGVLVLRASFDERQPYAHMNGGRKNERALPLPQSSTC
Put plainly: IGF-1R autophosphorylation assay (Western blot), pIGF-1R. In kind it is cell-based. The note with it: 1 h treatment, IGF-1 50 ng/mL stimulation. Here is the method: (§1) Cells were grown and maintained in a medium containing 10% FBS. Cells grown as subconfluent monolayer, were subjected to serum starvation by replacing the respective culture medium with plain medium (containing no serum) and incubated for about 16 h at 37° C. in 5% CO2 incubator. Serum starved cells were treated with compound I at different concentrations for 1 h at 37° C. in 5% CO2 incubator and stimulated with IGF-1 (50 ng/mL) for the last 5 minutes of treatment with Compound I. After stimulation cells were washed twice with cold 1×PBS, pH 7.2 and cell lysates were prepared using CelLytic™ M cell lysis reagent (Sigma) containing protease and phosphatase inhibitors. Estimation of the total protein content in each cell lysate was carried out using Bradford reagent. Equal amount of protein from each lysate was subjected to Sodium Dodecyl Sulphate-Polyacrylamide Gel Electrophoresis (SDS-PAGE) followed by Western blotting protocol using specific antibody to pIGF-1R, IGF-1Rβ, pAkt, Akt, Pp70S6, p70S6, Pp44/42, p44/42 and loading control, β-actin. Imaging was done with BIO-RAD Image-Lab Software. The band density was then estimated using the software Image J. From the band densities of the various proteins at different concentrations of Compound I, the IC50 concentrations for various proteins were calculated, and are enumerated in Table 3.
(A western blot detects proteins with antibodies after separation by electrophoresis.)

The subject of the next series is pAkt. Description: IGF-1R autophosphorylation assay (Western blot), pAkt. In kind it is cell-based, human. The note with it: 1 h treatment, IGF-1 50 ng/mL stimulation. As for the experimental part: as §1
The next series concerns Pp70S6. Put plainly: IGF-1R autophosphorylation assay (Western blot), Pp70S6. The note with it: 1 h treatment, IGF-1 50 ng/mL stimulation. The class given is cell-based, human. Here is the method: as §1
The nature of series [1]: Stability of the solid form under stress conditions. The class given is physicochemical.
Series [2] has as its target T2, intracellular kinase domain of human IGF-1R (GST fusion protein) (Homo sapiens, UniProt P08069).
T2 construct: intracellular kinase domain of human IGF-1R and expressed as GST fusion proteins; GST; made in house
Description: In vitro IGF-1R kinase assay (HTRF). The class given is biochemical. The note with it: ATP 20 μM, IGFRK 0.25 nM, read-out: IC50 IGF-1R enzyme. As for the experimental part: The in vitro kinase assays using IGF-1R kinase GST fusion proteins were conducted using a homogeneous time-resolved fluorescence (HTRF) format. Kinase reactions were carried out in a 384-well plate format in a final volume of 20 μL. The standard enzyme reaction buffer consisted of 50 mM Tris HCL (pH: 7.4), 1 mM EGTA, 10 mM MgCl2, 2 mM DTT, 0.01% Tween-20, IGF-1R/IR kinase enzyme, poly GT peptide substrate (Perkin Elmer [Ulight Glu-Tyr (4:1)]n) and ATP [concentration equivalent to Kmapp]. […] Europium cryptate—labeled antiphosphotyrosine antibody PY20 (5 μL) was added (final concentration of 2 nM) and the mixture was allowed to equilibrate for 1 hour at 23° C. followed by reading the plate in an Envision plate reader. […] The IC50 values for Compound I in both, the crystalline form and the amorphous form were determined by a four-parameter sigmoidal curve fit (Sigma plot or Graph pad) as represented in Table 2.
IGFRK enzyme used for the assay was intracellular kinase domain of human IGF-1R and expressed as GST fusion proteins using the baculovirus expression system and purified using glutathione—Sepharose column. […]
On the technique in general: Time-resolved FRET reads energy transfer from a long-lived donor to a nearby acceptor.

For another series, the system named is SK-ES cells. Description: Anti-proliferative assay (CellTiter-Glo), SK-ES. To be noted: Homo sapiens, 72 h, 100 ng/mL IGF-1 without FCS. In kind it is cell-based. Here is the method:
(§2) The cancer cell lines were seeded in triplicate (at density, from 3000-5000 cells/well depending on cell type) with 10% FCS in 180 μL of culture medium in tissue culture grade 96 well plates and allowed to recover for 24 h in humidified 5% CO2 incubator at 37±1° C. […] Compound I in crystalline form was used at concentration range of 0.1, 1, 3 and 10 μM and the plates were incubated for 72 h in humidified 5% CO2 incubator at 37±1° C. Control wells were treated with vehicle (DMSO). At the end of the incubation periods, the plates were assayed by the CellTiter-Glo® Luminescent Cell Viability assay protocol. Percent cytoxicity was calculated at the various drug concentrations. Graph for cytotoxicity vs. concentration of Compound I was plotted, and the IC50 values were determined
(§3) The CellTiter-Glo® Luminescent Cell Viability Assay is a homogeneous method to determine the number of viable cells in culture based on quantitation of the ATP present, which signals the presence of metabolically active cells. The amount of ATP is directly proportional to the number of cells present in culture
(§4) • 1. […] The luminescence is recorded using the POLARstar optima plate reader […] Values are IC50 in nM for different cell lines are provided for the crystalline form of Compound I in Table 4.
(In general: In ATP-based viability assays light output follows the ATP content of the culture.)

For the next series, the system named is RD-ES cells. Put plainly: Anti-proliferative assay (CellTiter-Glo), RD-ES. The note with it: Homo sapiens, 72 h, 100 ng/mL IGF-1 without FCS. The class given is cell-based. As for the experimental part: as §2, §3, §4
The test system of the next series is HCT116 cells. Put plainly: Anti-proliferative assay (CellTiter-Glo), HCT116. To be noted: Homo sapiens, HCT-116; HCT116, 72 h, 100 ng/mL IGF-1 without FCS. The class given is cell-based. Here is the method:
as §2, §3, §4

Another series concerns MCF7 cells. Put plainly: Anti-proliferative assay (CellTiter-Glo), MCF7. The note with it: Homo sapiens; MCF7, 72 h, 100 ng/mL IGF-1 without FCS. In kind it is cell-based. As for the experimental part:
as §2, §3, §4

For the next series, the system named is RD cells. Put plainly: Anti-proliferative assay (CellTiter-Glo), RD. In kind it is cell-based. To be noted: Homo sapiens, 72 h, 100 ng/mL IGF-1 without FCS. As for the experimental part: as §2, §3, §4
The next series concerns A673 cells. Description: Anti-proliferative assay (CellTiter-Glo), A673. In kind it is cell-based. The note with it: Homo sapiens; A673, 72 h, 100 ng/mL IGF-1 without FCS. As for the experimental part: as §2, §3, §4
[3] abbreviates: Homo sapiens, A673, 1 h, A673 cells.
The mark [4] stands for this setting: MCF7 cells, listed as Crystalline form.

T2 sequence (P08069 999-1274 limits assumed): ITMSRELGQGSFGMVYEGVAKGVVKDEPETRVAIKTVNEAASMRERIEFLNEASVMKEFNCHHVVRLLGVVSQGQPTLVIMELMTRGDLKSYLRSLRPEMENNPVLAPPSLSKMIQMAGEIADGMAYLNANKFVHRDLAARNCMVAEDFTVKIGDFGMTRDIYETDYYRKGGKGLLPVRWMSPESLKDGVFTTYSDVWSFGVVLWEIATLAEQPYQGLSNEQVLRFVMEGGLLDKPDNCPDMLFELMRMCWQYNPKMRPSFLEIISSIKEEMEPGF

Consider `C[C@@]1(C(=O)Nc2ccc(F)nc2)CCCN1c1nc(Nc2cc(C3CC3)n[nH]2)c2cccn2n1` [BMS-754807], for which, in the series with human tumor cell lines, the “inhibition of growth of human tumor types in vitro” value is given as “effectively inhibits the growth”.

One may read the IC50 as the concentration that gives 50% inhibition. Turning to `CCOC(=O)N1CCC(Nc2cc(Cl)cc3c(S(=O)(=O)N4CCO[C@H](COc5ccccc5)C4)c(C(N)=O)[nH]c23)CC1` [Compound I (amorphous form), (S)-ethyl 4-(2-carbamoyl-5-chloro-3-(2-(phenoxymethyl)morpholinosulfonyl)-1H-indol-7-ylamino)piperidine-1-carboxylate methane sulfonate], the half-maximal inhibitory concentration (IC50) was under 10 nM against pIGF-1R (A673 cells); 400 nM against pIGF-1R (Colo205 cells); 15 nM on pIGF-1R (MCF7 cells); 620 nM in the series with pAkt (Colo205 cells, listed as Amorphous form); 260 nM in the series with pAkt (setting [3]); 380 nM with pAkt (MCF7 cells, listed as Amorphous form). In addition, the half-inhibitory concentration (IC50) is 450 nM with Pp70S6 (setting [3]) and 680 nM with Pp70S6 (Homo sapiens, MCF7, 1 h, MCF7 cells). Further, the “stability under stress conditions” value in [1] (listed as amorphous form of Compound I) is “unstable under stress conditions”.

Consider `CCOC(=O)N1CCC(Nc2cc(Cl)cc3c(S(=O)(=O)N4CCO[C@H](COc5ccccc5)C4)c(C(N)=O)[nH]c23)CC1` [Compound I (crystalline form), (S)-ethyl 4-(2-carbamoyl-5-chloro-3-(2-(phenoxymethyl)morpholinosulfonyl)-1H-indol-7-ylamino)piperidine-1-carboxylate methane sulfonate], for which the half-inhibitory concentration (IC50) in [2] was 22 nM; against pIGF-1R (A673 cells) it was 30 nM; against pIGF-1R (Colo205 cells) it was 46 nM; with pAkt (A673 cells), 220 nM; in the series with pAkt (Colo205 cells, listed as Crystalline form), 23 nM; in the series with pAkt (setting [4]), 50 nM. Also, the IC50 came out at 460 nM with Pp70S6 (setting [4]); 450 nM in the series on SK-ES cells; 250 nM with RD-ES cells; 900 nM with HCT116 cells; 160 nM in the series with MCF7 cells; 1400 nM in the series with RD cells. Further, the half-maximal inhibitory concentration (IC50) in the series with A673 cells is 1800 nM. The “stability under stress conditions” value in series [1] (listed as crystalline form of Compound I) is “stable with reproducible pharmacological activity even under stress conditions”.
